Measured values as given in paper PMC9067930 (Science Advances, 2022).
Read-outs that look alike come from different tables or passages of the source. Values belong to the compound of their own block, whether it stands above or below them. No end group written: not given here.

Experiments:
Y2R [1] = target: T1, Y2R (Homo sapiens, UniProt P49146); format: binding; details: high- and low-affinity state
T1 sequence (P49146 1-381): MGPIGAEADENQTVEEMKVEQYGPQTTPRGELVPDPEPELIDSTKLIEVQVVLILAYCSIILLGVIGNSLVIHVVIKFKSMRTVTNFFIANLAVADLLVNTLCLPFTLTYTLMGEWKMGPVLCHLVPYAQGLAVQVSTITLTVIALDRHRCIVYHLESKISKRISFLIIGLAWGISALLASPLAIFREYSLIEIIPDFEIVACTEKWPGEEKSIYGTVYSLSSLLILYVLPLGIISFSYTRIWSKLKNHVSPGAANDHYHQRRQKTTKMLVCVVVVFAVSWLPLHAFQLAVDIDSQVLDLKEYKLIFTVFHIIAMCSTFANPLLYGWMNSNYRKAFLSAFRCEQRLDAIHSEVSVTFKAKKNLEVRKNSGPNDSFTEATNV

[2] = target: Nluc-Y1R, wild type (human) (UniProt P25929); assay: FRET or BRET
Nluc-Y1R, wild type (human), sequence (P25929 whole entry): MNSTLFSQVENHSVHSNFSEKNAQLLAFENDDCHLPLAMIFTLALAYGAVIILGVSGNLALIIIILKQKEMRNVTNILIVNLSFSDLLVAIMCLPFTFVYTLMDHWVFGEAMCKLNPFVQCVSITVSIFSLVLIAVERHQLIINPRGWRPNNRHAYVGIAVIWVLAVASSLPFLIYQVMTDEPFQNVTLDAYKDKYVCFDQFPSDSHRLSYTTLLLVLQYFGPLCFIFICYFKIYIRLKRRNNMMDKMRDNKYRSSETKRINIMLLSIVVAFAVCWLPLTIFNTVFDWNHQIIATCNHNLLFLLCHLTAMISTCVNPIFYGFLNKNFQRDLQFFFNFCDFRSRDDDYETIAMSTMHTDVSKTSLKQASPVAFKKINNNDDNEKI

Nluc-Y4R Q^5.46A (human) = Nluc-Y4R Q^5.46A (human) (UniProt P50391); assay: FRET or BRET
Nluc-Y4R Q^5.46A (human), sequence (P50391 whole entry): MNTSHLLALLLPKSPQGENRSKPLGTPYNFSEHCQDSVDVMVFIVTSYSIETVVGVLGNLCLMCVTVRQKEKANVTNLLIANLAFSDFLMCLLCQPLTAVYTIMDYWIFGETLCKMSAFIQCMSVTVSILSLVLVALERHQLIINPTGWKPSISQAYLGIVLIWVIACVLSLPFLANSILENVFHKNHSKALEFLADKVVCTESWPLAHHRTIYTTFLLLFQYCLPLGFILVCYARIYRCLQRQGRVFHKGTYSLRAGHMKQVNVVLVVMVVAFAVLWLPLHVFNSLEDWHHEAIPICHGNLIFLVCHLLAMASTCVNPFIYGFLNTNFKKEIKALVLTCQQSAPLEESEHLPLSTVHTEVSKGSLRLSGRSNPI

[3] = target: Nluc-Y4R, wild type (human) (UniProt P50391); assay: FRET or BRET
Nluc-Y4R, wild type (human), sequence (P50391 whole entry): as above

[4] = target: Nluc-Y4R, wild type (human) (UniProt P50391); assay: FRET or BRET; remark: listed apart in the source
Y1R = details: cited from earlier work
Y2R [5] = details: cited from earlier work
Y4R [6] = details: cited from earlier work
Y4R [7] = details: cited from earlier work; remark: listed apart in the source

- affinity (Ki) in both states (Y2R [1]): essentially the same affinity
Compound: CCN(CC)C(=O)C(c1ccccc1)N1CCN(c2ccc(NC(=O)c3ccccc3-c3cccnc3)cc2F)CC1 (stereo not drawn) [JNJ-31020028]

- KD,2 (low-affinity state) [2]: 0.126 µM
Compound: K18(TAMRA)-NPY (peptide)

- fold reduction of affinity against wild-type Y4R (Nluc-Y4R Q^5.46A (human)): 100 fold
- KD,1 (high-affinity state) [3]: 0.018 µM
- KD,1 (high-affinity state) [4]: 0.026 µM
Compound: K22(TAMRA),Nle17,30-PP (peptide)

Compound: NPY mutant T32A
- binding affinity (Y1R; Y1R): loss of binding affinity
- binding affinity (Y2R [5]): loss of binding affinity
- binding affinity (Y4R [6]): loss of binding affinity

Compound: NPY(2–36): truncated NPY analog
- reduction of affinity and activity, respectively (Y1R; Y1R): more than 50 fold

Compound: NPY(3–36): N-terminally truncated NPY analog
- reduction of affinity and activity, respectively (Y1R; Y1R): more than 50 fold
- affinity (Y2R [5]): subnanomolar affinity

Compound: NPY(13–36): N-terminally truncated NPY analog
- affinity (Y2R [5]): subnanomolar affinity

Compound: NPY(18–36): N-terminally truncated NPY analog
- affinity (Y2R [5]): subnanomolar affinity

Compound: NPY(22–36): N-terminally truncated NPY analog
- affinity (Y2R [5]): subnanomolar affinity

Compound: PP(2–36): N-terminally truncated PP (PLEPVYPGDNATPEQMAQYAADLRRYINMLTRPRY; ends and bridges not checked; UniProt P01298 31-65, looked up, fragment)
- functional impairment (Y4R [7]): limited functional impairment

Compound: PYY: 36-residue C-terminally amidated neuropeptide
- binding (Y1R; Y1R F286A): marked loss

Compound: Q34G variant of NPY
- loss of binding affinity compared to NPY (Y1R; Y1R): 15 fold

Compound: Q34P-substituted analog of NPY
- affinity (Y1R; Y1R): wild-type affinity
- binding affinity (Y1R; Y1R, exchange of Q34 by proline): unchanged binding affinity
- binding (Y2R [5]): not tolerated
- binding (Y4R [6]): improved binding
